Experimental data reported in US12227488B2, “Small molecule degraders of Helios and methods of use” (DANA-FARBER CANCER INSTITUTE, INC., priority 2018, dated 2025).
“Also recorded” adds a separate entry of the source.

Key:
[1] = target: T1, CRBN and Helios (IKZF2) (Homo sapiens, UniProt Q96SW2+Q9UKS7); experiment: TR-FRET dimerization assay (CRBN-IKZF2 ternary complex formation); format: binding; details: for TR-FRET-IKZF2 (Normalized to CC-885): n=1
T1 construct: His (N); Strep (N)
How it was run: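 Compound-induced IKZF2 recruitment to CRBN was read as the 520/490 nm TR-FRET ratio after 15 min at rt. The mix held biotinylated IKZF2, BODIPY-labeled CRBN bound to DDB1 lacking the BPB propeller, tracer Tb-streptavidin and compound titrations; n=1, from ≥3 technical replicates per well.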

[2] = test system: IKZF2; experiment: Cellular degradation assay, eGFP-IKZF2Δ fusion with mCherry reporter in Flp-In 293 cells; format: cell-based; details: for IKZF2 GFP/RFP Relative Abundance: 5 h incubation, n=1
How it was run: (§1)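 DC50,5 h derived by variable-slope nonlinear fit of the per-well ratio of GFP-positive to mCherry-positive cells, imaged after 5 h compound exposure at 0.5% DMSO.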

[3] = target: T2, IKZF1 (Homo sapiens, UniProt Q13422); experiment: Cellular degradation assay, eGFP-IKZF1Δ fusion with mCherry reporter in Flp-In 293 cells; format: cell-based; details: for IKZF1 GFP/RFP Relative Abundance: 5 h incubation, n=1
T2 construct: expressed in transfected cells; host or cells: Flp-In 293
T2 sequence (Q13422 83-213 isoform Q13422-7 limits assumed): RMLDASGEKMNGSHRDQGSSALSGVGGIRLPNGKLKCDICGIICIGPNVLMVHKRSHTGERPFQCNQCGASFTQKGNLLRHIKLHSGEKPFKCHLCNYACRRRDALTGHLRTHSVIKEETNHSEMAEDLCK
T2 sequence (Q96SW2 whole entry partner, the tested form may be a part): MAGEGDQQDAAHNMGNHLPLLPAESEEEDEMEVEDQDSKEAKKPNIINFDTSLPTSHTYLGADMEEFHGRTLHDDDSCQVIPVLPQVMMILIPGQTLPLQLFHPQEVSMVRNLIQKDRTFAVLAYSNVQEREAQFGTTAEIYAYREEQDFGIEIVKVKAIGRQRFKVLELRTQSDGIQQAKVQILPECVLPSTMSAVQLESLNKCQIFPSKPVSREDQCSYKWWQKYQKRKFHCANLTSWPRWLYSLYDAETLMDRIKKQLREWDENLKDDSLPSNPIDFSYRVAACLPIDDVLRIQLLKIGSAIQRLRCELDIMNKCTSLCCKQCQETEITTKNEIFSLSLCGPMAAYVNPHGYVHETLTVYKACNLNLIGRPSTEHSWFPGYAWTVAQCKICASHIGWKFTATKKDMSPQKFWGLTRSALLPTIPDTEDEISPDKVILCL
T2 sequence (Q16531 2-1140 partner limits assumed): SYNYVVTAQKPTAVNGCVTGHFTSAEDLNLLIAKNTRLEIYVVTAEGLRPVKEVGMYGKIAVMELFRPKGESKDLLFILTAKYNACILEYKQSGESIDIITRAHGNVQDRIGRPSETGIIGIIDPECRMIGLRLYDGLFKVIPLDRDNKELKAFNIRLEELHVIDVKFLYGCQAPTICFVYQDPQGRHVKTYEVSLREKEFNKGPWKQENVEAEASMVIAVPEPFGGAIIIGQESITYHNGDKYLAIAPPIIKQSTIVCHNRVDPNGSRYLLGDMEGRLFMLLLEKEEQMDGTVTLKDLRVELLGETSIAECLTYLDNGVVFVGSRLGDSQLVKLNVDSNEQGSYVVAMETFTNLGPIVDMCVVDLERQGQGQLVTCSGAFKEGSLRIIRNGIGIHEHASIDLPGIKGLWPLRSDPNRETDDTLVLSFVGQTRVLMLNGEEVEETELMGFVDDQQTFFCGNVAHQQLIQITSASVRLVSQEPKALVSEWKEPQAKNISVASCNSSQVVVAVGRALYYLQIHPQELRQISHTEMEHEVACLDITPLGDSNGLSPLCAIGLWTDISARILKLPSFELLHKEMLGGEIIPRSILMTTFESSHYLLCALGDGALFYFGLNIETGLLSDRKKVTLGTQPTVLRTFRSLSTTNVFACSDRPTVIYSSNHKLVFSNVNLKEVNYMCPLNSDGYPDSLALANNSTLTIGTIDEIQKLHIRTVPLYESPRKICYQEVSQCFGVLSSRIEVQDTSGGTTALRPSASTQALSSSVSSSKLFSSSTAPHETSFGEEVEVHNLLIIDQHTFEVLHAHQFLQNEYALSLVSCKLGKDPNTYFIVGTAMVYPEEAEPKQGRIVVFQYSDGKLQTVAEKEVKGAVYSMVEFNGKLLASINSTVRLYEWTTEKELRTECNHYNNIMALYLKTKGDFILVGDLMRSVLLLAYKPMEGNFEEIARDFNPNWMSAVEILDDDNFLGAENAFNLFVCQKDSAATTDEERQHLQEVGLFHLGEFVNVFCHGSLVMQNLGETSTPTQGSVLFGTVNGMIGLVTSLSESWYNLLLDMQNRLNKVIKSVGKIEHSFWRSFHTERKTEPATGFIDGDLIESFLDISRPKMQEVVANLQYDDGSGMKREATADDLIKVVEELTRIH
How it was run: as §1

[4] = target: T3, SALL4 ZNF1-2 (Homo sapiens, UniProt Q96SW2+Q9UJQ4); experiment: Cellular degradation assay, eGFP-SALL4 ZnF1-2 fusion with mCherry reporter in Flp-In 293 cells; format: cell-based; details: 5 h incubation, n=1
T3 construct: IKZF1Δ, IKZF2Δ, GSPT1 and SALL4 ZnF1-2 were subcloned; expressed in transfected cells; host or cells: Flp-In 293
T3 sequence (Q9UJQ4 378-438 limits assumed): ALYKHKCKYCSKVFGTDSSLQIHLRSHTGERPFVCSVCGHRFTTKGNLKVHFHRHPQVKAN
T3 sequence (Q96SW2 whole entry, the tested form may be a part): as the sequence (Q96SW2 whole entry partner, the tested form may be a part) above
T3 sequence (Q16531 whole entry partner, the tested form may be a part): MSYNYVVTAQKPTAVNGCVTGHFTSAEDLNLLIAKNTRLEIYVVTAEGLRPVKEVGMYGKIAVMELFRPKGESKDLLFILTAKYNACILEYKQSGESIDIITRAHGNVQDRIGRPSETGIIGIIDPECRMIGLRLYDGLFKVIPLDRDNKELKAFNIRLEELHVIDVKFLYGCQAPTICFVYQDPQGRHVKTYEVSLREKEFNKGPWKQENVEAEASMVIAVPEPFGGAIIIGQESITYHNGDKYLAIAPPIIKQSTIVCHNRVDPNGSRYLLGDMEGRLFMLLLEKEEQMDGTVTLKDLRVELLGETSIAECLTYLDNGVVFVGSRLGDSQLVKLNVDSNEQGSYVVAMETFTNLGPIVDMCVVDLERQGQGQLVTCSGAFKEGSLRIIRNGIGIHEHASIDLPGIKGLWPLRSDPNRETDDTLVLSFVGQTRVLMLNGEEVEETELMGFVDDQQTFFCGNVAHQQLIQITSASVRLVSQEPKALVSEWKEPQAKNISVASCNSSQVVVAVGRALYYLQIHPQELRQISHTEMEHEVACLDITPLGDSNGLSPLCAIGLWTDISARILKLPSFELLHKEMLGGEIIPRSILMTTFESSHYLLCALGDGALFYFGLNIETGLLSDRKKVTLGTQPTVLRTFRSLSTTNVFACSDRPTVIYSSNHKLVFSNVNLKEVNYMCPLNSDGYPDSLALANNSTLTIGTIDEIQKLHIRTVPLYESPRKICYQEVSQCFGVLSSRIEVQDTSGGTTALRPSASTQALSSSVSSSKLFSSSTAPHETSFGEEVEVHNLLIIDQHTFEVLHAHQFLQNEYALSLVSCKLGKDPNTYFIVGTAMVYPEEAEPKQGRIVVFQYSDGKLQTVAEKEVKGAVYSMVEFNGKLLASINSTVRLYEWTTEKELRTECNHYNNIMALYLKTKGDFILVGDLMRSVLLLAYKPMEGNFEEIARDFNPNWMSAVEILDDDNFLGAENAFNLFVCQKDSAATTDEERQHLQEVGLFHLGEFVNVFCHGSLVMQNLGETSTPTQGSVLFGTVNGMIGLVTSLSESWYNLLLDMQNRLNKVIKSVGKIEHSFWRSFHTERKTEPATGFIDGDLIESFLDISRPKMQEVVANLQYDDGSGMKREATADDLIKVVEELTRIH
Method: IKZF1Δ, IKZF2Δ, GSPT1 and SALL4 ZnF1-2 were subcloned into mammalian pcDNA5/FRT Vector (Ampicillin and Hygromycin B resistant) modified to contain MCS-eGFP-P2A-mCherry. Stable cell lines expressing eGFP-protein fusion and mCherry reporter were generated using Flp-In™ 293 system. Plasmid (0.3 μg) and pOG44 (4.7 μg) DNA were preincubated in 100 μL of Opti-MEM® I (Gibco®, Life Technologies™) media containing 0.05 mg/mL Lipofectamine® 2000 (Invitrogen™) for 20 min and added to Flp-In™ 293 cells containing 1.9 ml of DMEM media (Gibco®, Life Technologies™) per well in a 6-well plate format (Falcon, 353046). Cells were propagated after 48 h and transferred into a 10 cm^2 plate (Corning, 430165) in DMEM media containing 50 μg/mL of Hygromycin B (REF 10687010, Invitrogen™) as a selection marker. Following 2-3 passage cycle, FACS (FACSAria™ II, BD) was used to enrich for cells expressing eGFP and mCherry. Cells stably expressing the IKZF1Δ, IKZF2Δ, GSPT1 or SALL4 Znf1-2 GFP fusions with mCherry reporter were seeded at 30-50% confluency in 384-well plates with 50 μL FluoroBrite™ DMEM media (Thermo Fisher Scientific, A18967) containing 10% FBS per well a day before compound treatment. Compound titrations were dispensed using a D300e Digital Dispenser (HP), normalized to 0.5% DMSO, and incubated with cells for 5 hours. The assay plate was imaged immediately using an Acumen® High Content Imager (TTP Labtech) with 488 nm and 561 nm lasers in […] grid per well format.
The resulting images were analyzed using CellProfiler™. A series of image analysis steps (‘image analysis pipeline’) was constructed. First, the red and green channels were aligned and cropped to target the middle of each well (to avoid analysis of heavily clumped cells at the edges), and a background illumination function was calculated for both red and green channels of each well individually and subtracted to correct for illumination variations across the 384-well plate from various sources of error. An additional step was then applied to the green channel to suppress the analysis of large auto fluorescent artifacts and enhance the analysis of cell specific fluorescence by way of selecting for objects under a given size, 30 A.U., and with a given shape, speckles. mCherry-positive cells were then identified in the red channel filtering for objects between 8-60 pixels in diameter and using intensity to distinguish between clumped objects. The green channel was then segmented into GFP positive and negative areas and objects were labeled as GFP positive if at least 40% of it overlapped with a GFP positive area. The fraction of GFP-positive cells/mCherry-positive cells in each well was then calculated, and the green and red images were rescaled for visualization.

[5] = target: GSPT1 (Homo sapiens, UniProt P15170+Q96SW2); experiment: Cellular degradation assay, eGFP-GSPT1 fusion with mCherry reporter in Flp-In 293 cells; format: cell-based; parameters: expressed in transfected cells; host or cells: Flp-In 293; details: for GSPT1 GFP/RFP Relative Abundance: 5 h incubation, n=1
Chain of GSPT1 (P15170 whole entry, the tested form may be a part): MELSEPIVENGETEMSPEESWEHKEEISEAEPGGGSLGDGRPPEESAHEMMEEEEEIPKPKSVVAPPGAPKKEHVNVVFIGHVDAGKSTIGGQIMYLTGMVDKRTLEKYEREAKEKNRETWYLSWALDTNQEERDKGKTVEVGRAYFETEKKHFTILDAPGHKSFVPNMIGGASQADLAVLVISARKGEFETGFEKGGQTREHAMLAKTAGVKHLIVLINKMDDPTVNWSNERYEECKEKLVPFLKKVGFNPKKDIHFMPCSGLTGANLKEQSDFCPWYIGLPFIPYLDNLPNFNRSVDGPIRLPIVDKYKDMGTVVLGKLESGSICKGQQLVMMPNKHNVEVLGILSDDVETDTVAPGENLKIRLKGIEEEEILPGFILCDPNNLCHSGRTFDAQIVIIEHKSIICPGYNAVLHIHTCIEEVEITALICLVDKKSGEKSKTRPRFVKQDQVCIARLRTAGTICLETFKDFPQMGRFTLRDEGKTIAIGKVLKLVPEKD
Chain of GSPT1 (Q96SW2 whole entry, the tested form may be a part): as the sequence (Q96SW2 whole entry partner, the tested form may be a part) above
Chain of GSPT1 (Q16531 whole entry partner, the tested form may be a part): as the sequence (Q16531 whole entry partner, the tested form may be a part) above
How it was run: as §1

[6] = compound concentration 6.6667E−05
[7] = compound concentration 6.6667E−06
[8] = compound concentration 6.6667E−07 (667 nM)
[9] = compound concentration 2.00E−05
[10] = compound concentration 2.00E−06
[11] = compound concentration 2.00E−07
[12] = half degradation at 5 h (DC50,5 h), triplicate, 11 point dose response

T1 sequence (Q96SW2 whole entry): as the sequence (Q96SW2 whole entry partner, the tested form may be a part) above
T1 sequence (Q9UKS7 whole entry): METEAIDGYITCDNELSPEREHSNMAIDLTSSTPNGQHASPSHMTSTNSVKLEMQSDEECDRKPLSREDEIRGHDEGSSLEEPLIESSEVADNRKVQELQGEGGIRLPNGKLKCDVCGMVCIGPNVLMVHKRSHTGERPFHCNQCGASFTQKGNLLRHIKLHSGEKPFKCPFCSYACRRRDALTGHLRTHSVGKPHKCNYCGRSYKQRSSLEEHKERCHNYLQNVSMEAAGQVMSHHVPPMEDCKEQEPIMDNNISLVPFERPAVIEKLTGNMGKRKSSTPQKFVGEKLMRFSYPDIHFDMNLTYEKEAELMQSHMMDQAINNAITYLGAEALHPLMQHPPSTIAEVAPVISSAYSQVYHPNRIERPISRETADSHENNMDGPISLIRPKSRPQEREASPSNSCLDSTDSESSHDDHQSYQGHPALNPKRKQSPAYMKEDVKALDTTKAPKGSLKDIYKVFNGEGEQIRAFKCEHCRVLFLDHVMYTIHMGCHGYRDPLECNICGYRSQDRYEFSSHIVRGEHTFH

| SMILES | TR-FRET signal (520/490 ratio), CRBN-Helios dimerization, in words ([1]; FIG. 1B, 2A, 5) | TR-FRET-IKZF2 (Normalized to CC-885) [1, 6] | TR-FRET-IKZF2 (Normalized to CC-885) [1, 7] | TR-FRET-IKZF2 (Normalized to CC-885) [1, 8] | IKZF2 cellular degradation, in words ([2]; Table 1 summary) | IKZF2 GFP/RFP Relative Abundance [2, 9] | IKZF2 GFP/RFP Relative Abundance [2, 10] | IKZF2 GFP/RFP Relative Abundance [2, 11] | DC50 [2, 12] | IKZF1 GFP/RFP Relative Abundance [3, 9] | IKZF1 GFP/RFP Relative Abundance [3, 10] | IKZF1 GFP/RFP Relative Abundance [3, 11] | DC50 [3, 12] | SALL4 ZNF1-2 GFP/RFP Relative Abundance [4, 9] | SALL4 ZNF1-2 GFP/RFP Relative Abundance [4, 10] | SALL4 ZNF1-2 GFP/RFP Relative Abundance [4, 11] | GSPT1 GFP/RFP Relative Abundance [5, 9] | GSPT1 GFP/RFP Relative Abundance [5, 10] | GSPT1 GFP/RFP Relative Abundance [5, 11] | DC50 [5, 12] |
| --- | --- | --- | --- | --- | --- | --- | --- | --- | --- | --- | --- | --- | --- | --- | --- | --- | --- | --- | --- | --- |
| Cc1ccc(NC(=O)NCc2ccc3c(c2)CN(C2CCC(=O)NC2=O)C3=O)cc1Cl (centres unmarked) [CC-885, reference compound] | some activity; also recorded: able to recruit IKZF2 to CRBN | 1.065 | 0.982 | 0.953 | degrade the IKZF2 in cellular assay | 0.277 | 0.281 | 0.289 | 80.7 nM | 0.133 | 0.071 | 0.077 | 0.56 nM | 1.000 | 0.876 | 0.852 | 0.240 | 0.041 | 0.012 | 0.084 nM |
| O=C1CCC(N2C(=O)C=C(Nc3ccccc3)C2=O)C(=O)N1 (centres unmarked) [Compound 2, 3-(2,5-dioxo-3-(phenylamino)-2,5-dihydro-1H-pyrrol-1-yl)piperidine-2,6-dione] |  | 0.386 | 0.306 | 0.286 |  | 0.878 | 0.920 | 0.864 |  | 0.143 | 0.143 | 0.147 |  | 0.724 | 0.762 | 0.774 | 0.763 | 0.903 | 0.930 |  |
| Cc1ccc(NC2=CC(=O)N(C3CCC(=O)NC3=O)C2=O)cc1Cl (centres unmarked) [Compound 3, 3-(3-((3-chloro-4-methylphenyl)amino)-2,5-dioxo-2,5-dihydro-1H-pyrrol-1-yl)piperidine-2,6-dione] |  | 0.357 | 0.267 | 0.253 |  | 1.032 | 0.973 | 0.979 |  | 0.242 | 0.370 | 0.349 |  | 0.914 | 0.884 | 0.879 | 1.204 | 1.006 | 1.190 |  |
| Cc1cc(NC2=CC(=O)N(C3CCC(=O)NC3=O)C2=O)ccc1Cl (centres unmarked) [Compound 4, 3-(3-((4-chloro-3-methylphenyl)amino)-2,5-dioxo-2,5-dihydro-1H-pyrrol-1-yl)piperidine-2,6-dione] |  | 0.485 | 0.411 | 0.270 |  | 0.925 | 1.028 | 1.002 |  | 0.314 | 0.433 | 0.550 |  | 0.862 | 0.850 | 0.903 | 0.922 | 0.904 | 0.750 |  |
| Cc1ccc(NC2=CC(=O)N(C3CCC(=O)NC3=O)C2=O)cc1C#N (centres unmarked) [Compound 5, 5-((1-(2,6-dioxopiperidin-3-yl)-2,5-dioxo-2,5-dihydro-1H-pyrrol-3-yl)amino)-2-methylbenzonitrile] |  | 0.376 | 0.296 | 0.187 |  | 0.930 | 1.000 | 1.020 |  | 0.395 | 0.478 | 0.650 |  | 1.008 | 0.946 | 0.992 | 0.714 | 0.843 | 1.050 |  |
| COC(=O)CNC1=CC(=O)N(C2CCC(=O)NC2=O)C1=O (centres unmarked) [Compound 13, Methyl (1-(2,6-dioxopiperidin-3-yl)-2,5-dioxo-2,5-dihydro-1H-pyrrol-3-yl)glycinate] |  | 0.032 | 0.028 | 0.019 |  | 1.040 | 1.005 | 1.070 |  | 1.069 | 1.076 | 1.058 |  | 0.962 | 1.017 | 1.017 | 1.172 | 1.162 | 1.004 |  |
